The values below come from patent US9127000B2, “Heterocyclic compounds and uses thereof” (Intellikine, LLC., priority 2011, dated 2015).

SMILES strings stand for the structures. Bounds are passed on as bounds.

Type in all cases: biochemical
One test concerns the target T1, PI3K γ (Homo sapiens, UniProt P48736).
T1 construct: purchased Upstate
The test is described as follows: PI3-kinase HTRF inhibition assay, PI3K γ. As to conditions: in vitro. The procedure:
(§1) Commercial kits or systems for assaying PI3-K activities are available. The commercially available kits or systems can be used to screen for inhibitors and/or agonists of PI3-Ks including but not limited to PI 3-Kinase α, β, δ, and γ. Anr exemplary system is PI 3-Kinase (human) HTRF™ Assay from Upstate. […] Briefly, the assay is a time resolved FRET assay that indirectly measures PIP3 product formed by the activity of a PI3-K. The kinase reaction is performed in a microtitre plate (e.g., a 384 well microtitre plate). The total reaction volume is approximately 20 ul per well. In the first step, each well receives 2 ul of test compound in 20% dimethylsulphoxide resulting in a 2% DMSO final concentration. Next, approximately 14.5 ul of a kinase/PIP2 mixture (diluted in 1× reaction buffer) is added per well for a final concentration of 0.25-0.3 ug/ml kinase and 10 μM PIP2. The plate is sealed and incubated for 15 minutes at room temperature. To start the reaction, 3.5 ul of ATP (diluted in 1× reaction buffer) is added per well for a final concentration of 10 μM ATP. The plate is sealed and incubated for 1 hour at room temperature. The reaction is stopped by adding 5ul of Stop Solution per well and then 5 ul of Detection Mix is added per well. The plate is sealed, incubated for 1 hour at room temperature, and then read on an appropriate plate reader. Data is analyzed and IC50s are generated using GraphPad Prism 5. For PI3K α, β, δ, and γ, the nM concentration of inhibitor to reach IC50 is provided Inhibition of PI3K a at lower concentrations than those for β, δ, and γ provides evidence of specificity within this group of kinases. Similar assays, and others known in the art, can be used to measure the percent inhibition of other kinases, including but not limited to PI3K class II kinases, phosphoinositide 4 kinases (PI4K), and phosphoinositide 5 kinases (PI5K).

A further test deals with T2, PI3K β (Homo sapiens, UniProt P42338).
T2 construct: purchased Upstate
In words: PI3-kinase HTRF inhibition assay, PI3K β. The following applies: in vitro. How it is done:
as §1
(In general: In TR-FRET formats the signal depends on donor and acceptor labels being close together.)

A further test addresses T3, PI3K δ (Homo sapiens, UniProt O00329).
T3 construct: purchased Upstate
In words: PI3-kinase HTRF inhibition assay, PI3K δ. The following applies: in vitro. The procedure:
as §1

The next test has as its target T4, PI3K α (Homo sapiens, UniProt P42336).
T4 construct: purchased Upstate
In words: PI3-kinase HTRF inhibition assay, PI3K α. The following applies: in vitro. The procedure: as §1

The target of the next test is T5, mTORC (Homo sapiens, UniProt P42345).
T5 construct: purchased Invitrogen
The test is described as follows: mTOR inhibition assay (in vitro IC50). The procedure: The cross-activity or lack thereof of one or more compounds of the present invention against mTor can be measured according to any procedures known in the art or methods disclosed below. The compounds described herein can be tested against recombinant mTOR (Invitrogen) in an assay containing 50 mM HEPES, pH 7.5, 1 mM EGTA, 10 mM MgCl2, 2.5 mM, 0.01% Tween, 10 μM ATP (2.5 μCi of […]), and 3 μg/mL BSA. Rat recombinant PHAS-1/4EBP1 (Calbiochem; 2 mg/mL) is used as a substrate. Reactions are terminated by spotting onto nitrocellulose, which is washed with 1M NaCl/1% phosphoric acid (approximately 6 times, 5-10 minutes each). Sheets are dried and the transferred radioactivity quantitated by phosphorimaging.
Other kits or systems for assaying mTOR activity are commercially available. For instance, one can use Invitrogen's LanthaScreen™ Kinase assay to test the inhibitors of mTOR disclosed herein. This assay is a time resolved FRET platform that measures the phosphorylation of GFP labeled 4EBP1 by mTOR kinase. The kinase reaction is performed in a white 384 well microtitre plate. The total reaction volume is 20 ul per well and the reaction buffer composition is 50 mM HEPES pH7.5, 0.01% Polysorbate 20, 1 mM EGTA, 10 mM MnCl2, and 2 mM DTT. In the first step, each well receives 2 ul of test compound in 20% dimethylsulphoxide resulting in a 2% DMSO final concentration. Next, 8 ul of mTOR diluted in reaction buffer is added per well for a 60 ng/ml final concentration. To start the reaction, 10 ul of an ATP/GFP-4EBP1 mixture (diluted in reaction buffer) is added per well for a final concentration of 10 μM ATP and 0.5 μM GFP-4EBP1. The plate is sealed and incubated for 1 hour at room temperature. The reaction is stopped by adding 10 ul per well of a Tb-anti-pT46 4EBP1 antibody/EDTA mixture (diluted in TR-FRET buffer) for a final concentration of 1.3 nM antibody and 6.7 mM EDTA. The plate is sealed, incubated for 1 hour at room temperature, and then read on a plate reader set up for LanthaScreen™ TR-FRET. Data is analyzed and IC50s are generated using GraphPad Prism 5.

T2 sequence (P42338 whole entry): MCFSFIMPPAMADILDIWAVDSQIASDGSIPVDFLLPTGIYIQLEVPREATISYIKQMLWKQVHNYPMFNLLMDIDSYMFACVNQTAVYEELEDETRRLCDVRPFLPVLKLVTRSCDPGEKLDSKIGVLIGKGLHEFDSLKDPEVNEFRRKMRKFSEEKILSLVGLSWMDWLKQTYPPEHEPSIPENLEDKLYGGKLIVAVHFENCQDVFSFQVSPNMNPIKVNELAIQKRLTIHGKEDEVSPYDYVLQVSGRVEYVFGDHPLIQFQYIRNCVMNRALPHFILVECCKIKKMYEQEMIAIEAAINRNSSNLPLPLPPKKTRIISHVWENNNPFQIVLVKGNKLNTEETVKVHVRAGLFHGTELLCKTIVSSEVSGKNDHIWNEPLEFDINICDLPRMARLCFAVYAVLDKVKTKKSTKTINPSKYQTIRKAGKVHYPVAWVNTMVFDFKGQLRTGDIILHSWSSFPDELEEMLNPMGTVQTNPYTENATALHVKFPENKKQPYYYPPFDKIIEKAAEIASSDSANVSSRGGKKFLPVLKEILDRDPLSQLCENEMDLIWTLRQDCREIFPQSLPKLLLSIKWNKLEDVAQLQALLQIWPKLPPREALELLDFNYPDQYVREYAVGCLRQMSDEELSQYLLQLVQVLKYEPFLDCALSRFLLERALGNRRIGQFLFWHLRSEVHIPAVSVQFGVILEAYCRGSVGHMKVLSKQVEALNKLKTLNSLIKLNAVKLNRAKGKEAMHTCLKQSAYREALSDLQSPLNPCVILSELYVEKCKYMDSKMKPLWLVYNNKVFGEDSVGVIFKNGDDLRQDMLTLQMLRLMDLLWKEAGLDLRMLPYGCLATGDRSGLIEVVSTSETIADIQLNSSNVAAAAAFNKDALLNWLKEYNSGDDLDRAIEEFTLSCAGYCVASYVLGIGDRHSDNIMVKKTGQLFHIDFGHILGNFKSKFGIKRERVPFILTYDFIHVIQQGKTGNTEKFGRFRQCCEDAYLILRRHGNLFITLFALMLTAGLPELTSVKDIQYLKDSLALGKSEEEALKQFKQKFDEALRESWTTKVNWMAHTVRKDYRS
T2 sequence (P27986 whole entry partner): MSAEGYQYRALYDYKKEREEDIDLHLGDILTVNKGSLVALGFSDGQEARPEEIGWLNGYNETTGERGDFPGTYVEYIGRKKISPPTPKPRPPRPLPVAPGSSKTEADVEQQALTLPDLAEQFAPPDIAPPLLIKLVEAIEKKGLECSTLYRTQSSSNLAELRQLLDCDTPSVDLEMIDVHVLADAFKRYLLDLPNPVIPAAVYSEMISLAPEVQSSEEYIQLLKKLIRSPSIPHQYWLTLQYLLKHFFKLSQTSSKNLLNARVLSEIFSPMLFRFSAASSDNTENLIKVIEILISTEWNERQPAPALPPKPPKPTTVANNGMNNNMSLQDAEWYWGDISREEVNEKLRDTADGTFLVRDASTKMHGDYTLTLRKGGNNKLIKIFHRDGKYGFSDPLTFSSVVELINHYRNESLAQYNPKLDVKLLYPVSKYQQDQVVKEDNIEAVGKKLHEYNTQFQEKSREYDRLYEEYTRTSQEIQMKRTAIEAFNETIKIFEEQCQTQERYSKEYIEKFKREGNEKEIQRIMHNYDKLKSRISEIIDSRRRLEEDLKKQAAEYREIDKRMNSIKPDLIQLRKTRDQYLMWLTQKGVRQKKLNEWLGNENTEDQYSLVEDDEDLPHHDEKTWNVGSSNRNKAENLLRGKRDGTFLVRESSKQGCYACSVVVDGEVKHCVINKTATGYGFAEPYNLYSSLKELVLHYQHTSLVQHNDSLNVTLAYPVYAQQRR
T3 sequence (O00329 whole entry): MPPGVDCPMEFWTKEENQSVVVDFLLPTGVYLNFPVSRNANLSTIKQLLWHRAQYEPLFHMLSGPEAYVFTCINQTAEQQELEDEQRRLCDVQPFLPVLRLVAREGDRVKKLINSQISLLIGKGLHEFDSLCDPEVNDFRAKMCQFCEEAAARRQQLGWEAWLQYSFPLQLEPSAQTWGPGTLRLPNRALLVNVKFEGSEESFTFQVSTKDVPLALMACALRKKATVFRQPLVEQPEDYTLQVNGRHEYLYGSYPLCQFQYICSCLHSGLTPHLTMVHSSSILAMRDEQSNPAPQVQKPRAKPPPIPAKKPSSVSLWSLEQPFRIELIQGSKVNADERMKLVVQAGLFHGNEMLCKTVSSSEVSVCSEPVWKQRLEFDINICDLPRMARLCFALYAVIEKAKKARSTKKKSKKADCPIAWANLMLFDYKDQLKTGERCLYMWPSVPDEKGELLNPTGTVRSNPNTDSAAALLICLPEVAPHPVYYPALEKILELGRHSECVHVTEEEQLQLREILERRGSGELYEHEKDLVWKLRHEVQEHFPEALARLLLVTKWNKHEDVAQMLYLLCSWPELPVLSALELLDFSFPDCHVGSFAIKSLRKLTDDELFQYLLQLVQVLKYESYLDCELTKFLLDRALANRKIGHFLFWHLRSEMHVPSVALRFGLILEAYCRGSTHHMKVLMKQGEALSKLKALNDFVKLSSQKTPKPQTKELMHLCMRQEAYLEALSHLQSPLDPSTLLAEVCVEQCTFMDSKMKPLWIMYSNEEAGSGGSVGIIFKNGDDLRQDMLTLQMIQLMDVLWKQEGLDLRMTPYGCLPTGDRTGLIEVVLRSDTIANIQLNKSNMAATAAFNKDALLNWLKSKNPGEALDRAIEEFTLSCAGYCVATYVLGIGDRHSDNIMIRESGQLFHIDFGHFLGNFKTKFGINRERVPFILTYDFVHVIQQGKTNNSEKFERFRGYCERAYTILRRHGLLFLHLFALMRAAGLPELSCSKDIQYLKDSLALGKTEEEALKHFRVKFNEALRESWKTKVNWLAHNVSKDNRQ
T3 sequence (P27986 whole entry partner): as the sequence (P27986 whole entry partner) above
T1 sequence (P48736 whole entry): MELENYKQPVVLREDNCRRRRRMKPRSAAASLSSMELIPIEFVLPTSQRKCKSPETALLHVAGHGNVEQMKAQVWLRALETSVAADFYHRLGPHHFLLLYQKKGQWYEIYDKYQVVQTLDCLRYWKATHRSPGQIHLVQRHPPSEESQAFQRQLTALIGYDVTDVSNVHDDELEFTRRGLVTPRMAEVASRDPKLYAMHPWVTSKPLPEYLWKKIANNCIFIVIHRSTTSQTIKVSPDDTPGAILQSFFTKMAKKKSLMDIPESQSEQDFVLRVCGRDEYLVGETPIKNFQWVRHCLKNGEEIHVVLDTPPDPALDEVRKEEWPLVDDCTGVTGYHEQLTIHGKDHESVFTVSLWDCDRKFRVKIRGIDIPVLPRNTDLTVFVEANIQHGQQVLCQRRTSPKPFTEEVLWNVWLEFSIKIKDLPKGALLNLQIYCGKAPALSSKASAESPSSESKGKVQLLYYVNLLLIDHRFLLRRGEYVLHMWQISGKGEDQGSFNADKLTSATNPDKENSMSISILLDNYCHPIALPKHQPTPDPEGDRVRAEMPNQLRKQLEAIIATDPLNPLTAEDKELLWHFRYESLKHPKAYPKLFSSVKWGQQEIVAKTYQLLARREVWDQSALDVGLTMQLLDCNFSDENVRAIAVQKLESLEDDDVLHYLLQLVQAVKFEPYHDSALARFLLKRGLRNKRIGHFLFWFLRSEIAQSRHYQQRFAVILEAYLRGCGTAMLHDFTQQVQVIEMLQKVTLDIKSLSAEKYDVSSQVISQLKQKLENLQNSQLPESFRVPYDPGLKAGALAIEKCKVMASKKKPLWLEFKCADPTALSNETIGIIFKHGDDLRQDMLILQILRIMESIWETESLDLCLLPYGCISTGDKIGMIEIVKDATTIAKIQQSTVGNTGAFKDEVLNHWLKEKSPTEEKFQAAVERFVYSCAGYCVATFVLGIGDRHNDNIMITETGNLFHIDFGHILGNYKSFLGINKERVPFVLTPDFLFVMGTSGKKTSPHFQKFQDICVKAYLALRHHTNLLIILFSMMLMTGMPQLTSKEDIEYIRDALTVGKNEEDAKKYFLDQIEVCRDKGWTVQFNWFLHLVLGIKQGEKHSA
T4 sequence (P42336 whole entry): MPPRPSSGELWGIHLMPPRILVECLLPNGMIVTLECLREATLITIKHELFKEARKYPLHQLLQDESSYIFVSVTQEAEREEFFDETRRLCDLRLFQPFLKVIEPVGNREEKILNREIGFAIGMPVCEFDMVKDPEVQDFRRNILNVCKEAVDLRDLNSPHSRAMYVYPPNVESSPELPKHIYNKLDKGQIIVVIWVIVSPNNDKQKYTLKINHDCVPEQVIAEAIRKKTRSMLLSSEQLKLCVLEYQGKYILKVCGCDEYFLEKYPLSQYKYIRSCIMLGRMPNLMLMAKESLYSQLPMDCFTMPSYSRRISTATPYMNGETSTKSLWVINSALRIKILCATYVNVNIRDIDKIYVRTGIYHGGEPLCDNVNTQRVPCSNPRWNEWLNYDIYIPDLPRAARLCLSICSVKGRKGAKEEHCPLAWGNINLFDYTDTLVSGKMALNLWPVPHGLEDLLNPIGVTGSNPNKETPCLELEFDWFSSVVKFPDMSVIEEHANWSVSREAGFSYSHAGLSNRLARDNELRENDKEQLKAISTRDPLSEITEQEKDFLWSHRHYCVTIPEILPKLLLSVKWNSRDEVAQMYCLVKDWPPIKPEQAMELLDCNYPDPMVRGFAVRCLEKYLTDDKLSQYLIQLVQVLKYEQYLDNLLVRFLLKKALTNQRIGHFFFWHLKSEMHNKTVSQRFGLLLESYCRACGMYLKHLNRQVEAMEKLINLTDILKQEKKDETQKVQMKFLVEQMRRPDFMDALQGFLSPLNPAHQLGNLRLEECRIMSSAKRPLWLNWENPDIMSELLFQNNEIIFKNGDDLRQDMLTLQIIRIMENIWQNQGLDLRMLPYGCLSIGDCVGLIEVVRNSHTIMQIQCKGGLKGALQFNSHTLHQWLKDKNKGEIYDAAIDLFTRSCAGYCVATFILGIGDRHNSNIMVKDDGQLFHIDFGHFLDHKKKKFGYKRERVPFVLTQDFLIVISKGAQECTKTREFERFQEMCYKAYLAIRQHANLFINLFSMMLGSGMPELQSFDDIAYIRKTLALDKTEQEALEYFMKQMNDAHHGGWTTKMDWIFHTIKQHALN
T4 sequence (P27986 whole entry partner): as the sequence (P27986 whole entry partner) above

The IC50 is the concentration that gives 50% inhibition. Low values mean greater potency, high ones weaker potency. As for `[2H]c1c(-c2ccc3ncc(C(=O)N4CCOCC4)n3c2)c([2H])c2nc(N)oc2c1[2H]` [Compound 2], the IC50 at PI3K γ is under 0.1 µM; against PI3K β it was under 10 µM; at PI3K δ, over 10 µM; against PI3K α, under 0.1 µM.
On to `Cn1ncc2c(-c3ccc4ncc(C(=O)N5CCOCC5)n4c3)cncc21` [Compound 8], for which the IC50 against PI3K γ is under 10 µM; against PI3K β, over 10 µM; at PI3K δ it was over 10 µM; on PI3K α, under 10 µM.
For the molecule `CN1CCN(CCc2nnc3ccc(-c4ccc5nc(N)oc5c4)cn23)CC1` [Compound 16], the IC50 at PI3K γ, at PI3K β, on PI3K δ and against PI3K α was over 10 µM in each case.
On to `CN1CCN(Cc2nnc3ccc(-c4ccc5nc(N)oc5c4)cn23)CC1` [Compound 18], for which the IC50 against PI3K γ, at PI3K β, against PI3K δ and against PI3K α was over 10 µM each time.
On to `Cc1ncc(-c2ccc3ncc(C(=O)N4CCOCC4)n3c2)c2cn[nH]c12` [Compound 1], for which the IC50 at PI3K γ is over 10 µM; against PI3K β, over 10 µM; against PI3K δ, under 10 µM; at PI3K α, under 0.1 µM.
As to `Nc1nc2cc(-c3cnc4ccc(C(=O)N5C6CCC5COC6)cn34)ccc2o1` [Compound 11], the IC50 on PI3K γ, on PI3K β, against PI3K δ and on PI3K α was over 10 µM throughout.
Regarding `Nc1nc2cc(-c3ccc4ncc(C(=O)NCCOCC(=O)O)n4c3)ccc2o1` [Compound 22], the IC50 was under 0.1 µM at PI3K γ, under 1 µM on PI3K β and under 0.1 µM against PI3K α.
As to `O=C(c1cnc2ccc(-c3cnc4cn[nH]c4c3)cn12)N1CCOCC1` [Compound 6], the IC50 on PI3K γ, at PI3K β and on PI3K δ was over 10 µM in each case.
As to `Nc1nc2cc(-c3ccc4ncc(C(=O)NCCOCCO)n4c3)ccc2o1` [Compound 21], the IC50 on PI3K γ is under 1 µM; against PI3K β, under 10 µM; against PI3K δ it was under 10 µM; against PI3K α, under 1 µM.
On to `O=C(c1cnc2ccc(-c3cnc4cc[nH]c4c3)cn12)N1CCOCC1` [Compound 5], for which the IC50 at PI3K γ is over 10 µM; at PI3K β, over 10 µM; against PI3K δ, over 10 µM; at PI3K α, under 10 µM.
Regarding `CN1CC2CN(C(=O)c3cnc4ccc(-c5ccc6oc(N)nc6c5)cn34)CC2C1` (stereo not shown) [Compound 4], the IC50 against mTORC is over 10 µM; on PI3K γ it was under 1 µM; on PI3K β, under 1 µM; against PI3K δ, under 1 µM; on PI3K α, under 0.1 µM.
As for `Cc1cc(-c2ccc3nc(N)oc3c2)cn2c(N3CCN(C)CC3)nnc12` [Compound 17], the IC50 against PI3K γ, against PI3K β, at PI3K δ and at PI3K α was over 10 µM in each case.
As for `O=C(c1cnc2ccc(-c3cncc4c3cnn4CCO)cn12)N1CCOCC1` [Compound 10], the IC50 on PI3K γ, against PI3K β, on PI3K δ and on PI3K α was over 10 µM each time.
As for `CN1CCN(c2nnc3ccc(-c4ccc5nc(N)oc5c4)cn23)CC1` [Compound 13], the IC50 at PI3K γ, at PI3K β, against PI3K δ and at PI3K α was over 10 µM each time.
On to `Cc1cc(-c2ccc3nc(N)oc3c2)cn2c(-c3ccncc3)nnc12` [Compound 14], for which the IC50 at PI3K γ was over 10 µM; against PI3K β, under 10 µM; against PI3K δ, over 10 µM; at PI3K α, over 10 µM.
As for `Cc1cc(-c2ccc3nc(N)oc3c2)cn2c(CCN3CCN(C)CC3)nnc12` [Compound 19], the IC50 against PI3K γ, at PI3K β, on PI3K δ and against PI3K α was over 10 µM throughout.
As to `Nc1nc2cc(-c3cnc4ccc(C(=O)N5CCOCC5)cn34)ccc2o1` [Compound 12], the IC50 against PI3K β, at PI3K δ and at PI3K α was over 10 µM throughout.
For the molecule `Cc1ncc(-c2ccc3ncc(C(=O)N4CCOCC4)n3c2)c2cc[nH]c12` [Compound 7], the IC50 against PI3K γ is over 10 µM; at PI3K β it was over 10 µM; on PI3K δ, over 10 µM; on PI3K α it was under 10 µM.
Turning to `O=C(c1cnc2ccc(-c3ccnc4[nH]ncc34)cn12)N1CCOCC1` [Compound 3], the IC50 on mTORC was over 10 µM; on PI3K γ, over 10 µM; against PI3K β, over 10 µM; on PI3K δ it was over 10 µM; against PI3K α, under 10 µM.
Take `Cc1ncc(-c2ccc3ncc(C(=O)N4C5CCC4COC5)n3c2)c2cn[nH]c12` [Compound 9]: the IC50 against mTORC was over 10 µM; at PI3K γ it was over 10 µM; against PI3K β, over 10 µM; on PI3K δ, under 10 µM; on PI3K α, under 0.1 µM.
`Nc1nc2ccc(-c3ccc4ncc(C(=O)N5CCOCC5)n4c3)cc2[nH]1` [Compound 15]: the IC50 against PI3K γ was over 10 µM; against PI3K β it was over 10 µM; at PI3K δ it was over 10 µM; on PI3K α it was under 1 µM.
Regarding `Cc1cc(-c2ccc3nc(N)oc3c2)cn2c(CN3CCN(C)CC3)nnc12` [Compound 20], the IC50 at PI3K γ, against PI3K β, against PI3K δ and on PI3K α was over 10 µM in each case.
